Laboratory results reported in the RepoRT retention time repository (doi:10.1016/j.jhazmat.2019.121712).

Assay: Thermo Scientific Acclaim RSLC 120 C18, 100 × 2.1 mm, 2.2 µm, 30 °C; A: 90% water + 10% methanol + 0.01% formic acid + 5 mM ammonium formate; B: methanol + 0.01% formic acid + 5 mM ammonium formate; gradient (min/%B) 0.1/1 3/39 14/99.9 16/99.9
Conditions: stereoisomer not certain

Row | LC retention time [min] | Structure (SMILES)
1 | 10.6 | CCCc1nc(C)c2c(=O)[nH]c(-c3cc(S(=O)(=O)N4CCCCC4)ccc3OCC)nn12
2 | 6.67 | Cc1cccc(Nc2ccncc2S(=O)(=O)NC(=O)NC(C)C)c1
3 | 7.01 | CCCc1nn(C)c2c(=O)[nH]c(-c3cc(C(=O)CN4CCN(CC)CC4)ccc3OCC)nc12
4 | 5.29 | Cc1cccc(OCC(O)CNC(C)C)c1 (stereo unspecified)
5 | 9.08 | CC(=O)CC(c1ccccc1)c1c(O)c2ccccc2oc1=O (stereo unspecified)
6 | 8.92 | CCN(CC)CC#CCOC(=O)C(O)(c1ccccc1)C1CCCCC1 (stereo unspecified)
7 | 5.94 | NC(=O)N1c2ccccc2CC(O)c2ccccc21 (stereo unspecified)
8 | 7.8 | OC(CCN1CCCC1)(c1ccccc1)C1CCCCC1 (stereo unspecified)
9 | 4.56 | Cc1c(NC(=O)c2cccnc2)c(=O)n(-c2ccccc2)n1C
10 | 9.15 | C#CC1(O)CCC2C3CCC4=CC(=O)CCC4C3CCC21C (stereo unspecified)
11 | 8.11 | CNCCC(Oc1cccc2ccccc12)c1cccs1 (stereo unspecified)
12 | 5.81 | COc1cc2c(cc1OC)C(=O)C(CC1CCN(Cc3ccccc3)CC1)C2 (stereo unspecified)
13 | 1.79 | NCC1CCC(C(=O)O)CC1 (stereo unspecified)
14 | 4.49 | Cc1c(N(C)CS(=O)(=O)O)c(=O)n(-c2ccccc2)n1C
15 | 6.94 | CCCc1nn(C)c2c(=O)[nH]c(-c3cc(C(=O)CN4CCN(CCO)CC4)ccc3OCC)nc12
16 | 1.38 | NC(CO)C(=O)NNCc1ccc(O)c(O)c1O (stereo unspecified)
17 | 5.33 | C#CC[N+](C)([O-])C(C)Cc1ccccc1 (stereo unspecified)
18 | 4.23 | Cn1c(=O)c2c(ncn2C)n(C)c1=O
19 | 5.66 | C=CCOc1ccccc1OCC(O)CNC(C)C (stereo unspecified)
20 | 6.18 | CNCC(c1ccc(OC)cc1)C1(O)CCCCC1 (stereo unspecified)
21 | 8.31 | CC(CN(C)C)CN1c2ccccc2CCc2ccccc21 (stereo unspecified)
22 | 8.43 | COc1ccc(Oc2ccc(NC(=O)N(C)C)cc2)cc1
23 | 3.73 | CC1=C(C)S(=O)(=O)CCS1(=O)=O
24 | 6.89 | CN(C)CCC=C1c2ccccc2COc2ccc(CC(=O)O)cc21
25 | 7.75 | Cc1cc(C(C)(C)C)cc(C)c1CC1=NCCN1
26 | 7.24 | CC(Cc1ccccc1)N1C=C(NC(=O)N=C2C=CC(=O)C=C2)ON1 (stereo unspecified)

Row | Structure (SMILES) | LC retention time [min]
27 | CC(Cc1ccccc1)NCCn1cnc2c1c(=O)n(C)c(=O)n2C (stereo unspecified) | 5.06
28 | CCC(CC)(CNC(=O)CCCO)c1cccc(OC)c1 | 8.98
29 | CCOP(=S)(OCC)Oc1cc(C)nc(N(CC)CC)n1 | 12.3
30 | CC(C(O)c1ccccc1)N(C)C (stereo unspecified) | 3.73
31 | CC1C(c2ccccc2)OCCN1C (stereo unspecified) | 4.06
32 | CCOc1ccccc1OS(=O)(=O)NC(=O)Nc1nc(OC)cc(OC)n1 | 9.32
33 | CNC(=O)N(C)c1nc2ccccc2s1 | 8.26
34 | CCCCCn1cc(C(=O)Cc2ccccc2OC)c2ccccc21 | 11.8
35 | CCN(CC)CCOC(=O)C(O)(c1ccccc1)c1ccccc1 | 6.08
36 | CN(C)C(=O)Oc1cc(OC(=O)N(C)C)cc(C(O)CNC(C)(C)C)c1 (stereo unspecified) | 5.16
37 | CC12C=CC(=O)C=C1CCC1C2CCC2(C)C(O)CCC12 (stereo unspecified) | 9.03
38 | CC(Cc1ccc(O)cc1)NCC(O)c1cc(O)cc(O)c1 (stereo unspecified) | 3.61
39 | CN(C)C(=S)SSC(=S)N(C)C | 6.8
40 | CCCCCn1nc(C(=O)Oc2cccc3cccnc23)c2ccccc21 | 11.4
41 | CCOP(=S)(Oc1ccc([N+](=O)[O-])cc1)c1ccccc1 (stereo unspecified) | 11.7
42 | CCOP(=O)(OCC)Oc1ccc([N+](=O)[O-])cc1 | 8.01
43 | CCCCCn1nc(C(=O)NC(C(N)=O)C(C)(C)C)c2ccccc21 (stereo unspecified) | 11.2
44 | CC(C)N(Cc1ccccc1)C(=O)C(C)(C)C | 10.2
45 | Cc1ccccc1CC(C)N (stereo unspecified) | 5.17
46 | Cc1ccc(C(=O)C(C)N2CCCC2)cc1 (stereo unspecified) | 4.76
